# Source: PMC12454493, “Insight on novel sulfamoylphenyl pyrazole derivatives as anticancer carbonic anhydrase inhibitors” (Molecular Diversity, 2024)
# Assays:
# Assay type in all cases: cell-based
# [1] = tested on: RPMI-8226; experiment: NCI-60 one-dose SRB screen (Leukemia); conditions: Homo sapiens, single dose 10 µM, 48 h, read-out: Growth inhibition percent (GI %)
# Method: (§1) The National Cancer Institute (NCI) Developmental Therapeutic Program (www.dtp.nci.nih.gov) selected the 20 novel synthesized compounds 4a-e, 5a-e, 6a-c, 9a-e, 10 and 11 to test for their anticancer activity at a single dose of 10 µM using SRB assay. […] Supplementary Data S3; Table S1 presents the detailed screening results of the most promising compounds. The preliminary screening’s detailed results for the remaining compounds are elucidated in the (Supplementary Data S3; Table S2).
# (§2) The guidelines of the Drug Evaluation Branch’s protocol at the NCI in Bethesda served as the basis for the in vitro anticancer screening assays. at one dose 10 µM against a panel of 60 cancer cell lines. The human tumor cell lines used belonged to nine panels: leukemia, melanoma, lung, colon, CNS, ovarian, renal, prostate and breast cancers using the sulforhodamine B (SRB) assay in a 48 h drug exposure protocol.
# [2] = tested on: CCRF-CEM; experiment: NCI-60 one-dose SRB screen (Leukemia); conditions: Homo sapiens, single dose 10 µM, 48 h, read-out: Growth inhibition percent (GI %)
# Method: as §1, §2
# [3] = tested on: SR; experiment: NCI-60 one-dose SRB screen (Leukemia); conditions: Homo sapiens, single dose 10 µM, 48 h, read-out: Growth inhibition percent (GI %)
# Method: as §1, §2
# [4] = tested on: HL-60(TB); experiment: NCI-60 one-dose SRB screen (Leukemia); conditions: Homo sapiens, single dose 10 µM, 48 h, read-out: Growth inhibition percent (GI %)
# Method: as §1, §2
# [5] = tested on: MOLT-4; experiment: NCI-60 one-dose SRB screen (Leukemia); conditions: Homo sapiens, single dose 10 µM, 48 h, read-out: Growth inhibition percent (GI %)
# Method: as §1, §2
# [6] = tested on: K-562; experiment: NCI-60 one-dose SRB screen (Leukemia); conditions: Homo sapiens, K562, single dose 10 µM, 48 h, read-out: Growth inhibition percent (GI %)
# Method: as §1, §2
# [7] = tested on: CAKI-1; experiment: NCI-60 one-dose SRB screen (Renal Cancer); conditions: Homo sapiens, single dose 10 µM, 48 h, read-out: Growth inhibition percent (GI %)
# Method: as §1, §2
# [8] = tested on: UO-31; experiment: NCI-60 one-dose SRB screen (Renal Cancer); conditions: Homo sapiens, single dose 10 µM, 48 h, read-out: Growth inhibition percent (GI %)
# Method: as §1, §2
# [9] = tested on: ACHN; experiment: NCI-60 one-dose SRB screen (Renal Cancer); conditions: Homo sapiens, single dose 10 µM, 48 h, read-out: Growth inhibition percent (GI %)
# Method: as §1, §2
# [10] = tested on: RXF 393; experiment: NCI-60 one-dose SRB screen (Renal Cancer); conditions: Homo sapiens, single dose 10 µM, 48 h, read-out: Growth inhibition percent (GI %)
# Method: as §1, §2
# [11] = tested on: TK-10; experiment: NCI-60 one-dose SRB screen (Renal Cancer); conditions: Homo sapiens, single dose 10 µM, 48 h, read-out: Growth inhibition percent (GI %)
# Method: as §1, §2
# [12] = tested on: A498; experiment: NCI-60 one-dose SRB screen (Renal Cancer); conditions: Homo sapiens, single dose 10 µM, 48 h, read-out: Growth inhibition percent (GI %)
# Method: as §1, §2
# [13] = tested on: 786-0; experiment: NCI-60 one-dose SRB screen (Renal Cancer); conditions: Homo sapiens, single dose 10 µM, 48 h, read-out: Growth inhibition percent (GI %)
# Method: as §1, §2
# [14] = tested on: OVCAR-8; experiment: NCI-60 one-dose SRB screen (Ovarian cancer); conditions: Homo sapiens, single dose 10 µM, 48 h, read-out: Growth inhibition percent (GI %)
# Method: as §1, §2
# [15] = tested on: NCI/ADR-RES; experiment: NCI-60 one-dose SRB screen (Ovarian cancer); conditions: Homo sapiens, single dose 10 µM, 48 h, read-out: Growth inhibition percent (GI %)
# Method: as §1, §2
# [16] = tested on: OVCAR-4; experiment: NCI-60 one-dose SRB screen (Ovarian cancer); conditions: Homo sapiens, single dose 10 µM, 48 h, read-out: Growth inhibition percent (GI %)
# Method: as §1, §2
# [17] = tested on: OVCAR-3; experiment: NCI-60 one-dose SRB screen (Ovarian cancer); conditions: Homo sapiens, single dose 10 µM, 48 h, read-out: Growth inhibition percent (GI %)
# Method: as §1, §2
# [18] = tested on: IGROV1; experiment: NCI-60 one-dose SRB screen (Ovarian cancer); conditions: Homo sapiens, IGROV-1, single dose 10 µM, 48 h, read-out: Growth inhibition percent (GI %)
# Method: as §1, §2
# [19] = tested on: T-47D; experiment: NCI-60 one-dose SRB screen (Breast Cancer); conditions: Homo sapiens, T47D, single dose 10 µM, 48 h, read-out: Growth inhibition percent (GI %)
# Method: as §1, §2
# [20] = tested on: HS 578T; experiment: NCI-60 one-dose SRB screen (Breast Cancer); conditions: Homo sapiens, single dose 10 µM, 48 h, read-out: Growth inhibition percent (GI %)
# Method: as §1, §2
# [21] = tested on: MDA-MB-468; experiment: NCI-60 one-dose SRB screen (Breast Cancer); conditions: Homo sapiens, single dose 10 µM, 48 h, read-out: Growth inhibition percent (GI %)
# Method: as §1, §2
# [22] = tested on: BT-549; experiment: NCI-60 one-dose SRB screen (Breast Cancer); conditions: Homo sapiens, single dose 10 µM, 48 h, read-out: Growth inhibition percent (GI %)
# Method: as §1, §2
smiles,measurement,setting,value
"NC(=S)NNC(=O)c1cn(-c2ccc(S(N)(=O)=O)cc2)nc1-c1ccccc1 [Compound 9a, 2-[3-Phenyl-1-(4-sulfamoylphenyl)-1H-pyrazole-4-carbonyl] hydrazine-1-carbothioamide]",inhibition at 10 µM,[1],< 5%
same,inhibition at 10 µM,[2],< 5%
same,inhibition at 10 µM,[3],< 5%
same,inhibition at 10 µM,[4],< 5%
same,inhibition at 10 µM,[5],< 5%
same,inhibition at 10 µM,[6],< 5%
same,inhibition at 10 µM,[7],< 5%
same,inhibition at 10 µM,[8],< 5%
same,inhibition at 10 µM,[9],< 5%
same,inhibition at 10 µM,[10],< 5%
same,inhibition at 10 µM,[11],12.3%
same,inhibition at 10 µM,[12],< 5%
same,inhibition at 10 µM,[13],9.98%
same,inhibition at 10 µM,[14],< 5%
same,inhibition at 10 µM,[15],< 5%
same,inhibition at 10 µM,[16],< 5%
same,inhibition at 10 µM,[17],< 5%
same,inhibition at 10 µM,[18],< 5%
same,inhibition at 10 µM,[19],< 5%
same,inhibition at 10 µM,[20],< 5%
same,inhibition at 10 µM,[21],< 5%
same,inhibition at 10 µM,[22],< 5%
